Where a name gives a salt, the structure may show the parent alone.
Legend:
Experiment in all cases: MIC, antibacterial activity
Format in all cases: cell-based
[1] = test system: S. faecium D-65
[2] = test system: Staph. haemolyticus 712
[3] = test system: S. faecium D-59
[4] = test system: S. aureus 209 P
[5] = test system: S. aureus (MethR)
[6] = test system: Staph. epidermidis 178
[7] = test system: S. faec. D 21777
[8] = test system: S. epi. 823 (Teicoplanin R)
[9] = test system: S. aureus 3066 (MethR)
[10] = test system: S. epi. 825
[11] = test system: S. haemo. 809 (Teicoplanin R)
[12] = test system: E. coli 9632
[13] = test system: Streptococcus faecalis ATCC 29212
[14] = test system: S. aureus E 690 (MethR)
[15] = test system: P. vulgaris
[16] = test system: S. faec. D Endococcen
[17] = test system: Ps. aeruginosa

In the case of `CNC(CC(C)C)C(=O)NC1C(=O)NC(CC(N)=O)C(=O)NC2C(=O)NC3C(=O)NC(C(=O)NC(C(=O)O)c4cc(O)cc(O)c4-c4cc3ccc4O)C(OC3C[C@](C)(N)C(=O)C(C)O3)c3ccc(c(Cl)c3)Oc3cc2cc(c3OC2O[C@H](CO)C(O)[C@H](O)C2O)Oc2ccc(cc2Cl)C1O` (some centres unmarked) [Balhimycin trifluoroacetate, Balhimycin], the MIC [1] was 0.78 µg/mL, the MIC [2] was 1.56 µg/mL and the MIC [3] was 1.56 µg/mL. For the same compound, the MIC [4] was 0.39 µg/mL, the MIC [5] was 0.39 µg/mL and the MIC [6] was 1.56 µg/mL. For the same compound, the MIC [7] was 0.78 µg/mL, the MIC [8] was 12.5 µg/mL and the MIC [9] was 0.78 µg/mL. It also gave an MIC [10] of 3.12 µg/mL, an MIC [11] of 6.25 µg/mL and an MIC [12] of over 100 µg/mL. It also gave an MIC [13] of 1.56 µg/mL, an MIC [14] of 0.39 µg/mL and an MIC [15] of over 100 µg/mL. For the same compound, the MIC [16] was 0.78 µg/mL and the MIC [17] was over 100 µg/mL.

— patent EP0468504B1, “A novel antibiotic, balhimycin, a process for its production and its use as pharmaceutical” (HOECHST AKTIENGESELLSCHAFT, priority 1990, dated 1992)
